Reference: patent publication US20140230091A1, “MODIFIED PLANTS WITH INCREASED OIL CONTENT” (BROOKHAVEN SCIENCE ASSOCIATES, LLC, priority 2011, published 2014)

How the values were obtained:
[1] = system: fatty acid synthesis in B. napus cells; test: 14C-acetate / 14C-malonate labeling of lipids (feedback inhibition of fatty acid synthesis); format: cell-based, Brassica napus; conditions: for Relative 14C-acetate incorporation (% control): relative to a control sample without any Tweens, mean of three repeats ± SD
Experimental: All radioisotopes were obtained from American Radiolabeled Chemicals (St. Louis, Mo. USA). Labeling was conducted on cells 5 days after subculturing with a culture density of ˜20 mg FW mL^−1 and that had medium refreshed 16 h prior. For labeling, three 1 mL aliquots of cells were carefully removed from each flask and were labeled with either 0.2 μCi of 1,2-^14C-acetate (50-60 mCi mmol^−1) or 2-^14C-malonate (40-60 mCi mmol^−1) for 15 minutes at 25° C. with occasional shaking. Haloxyfop (Sigma) was dissolved in DMSO and added 30 min prior to labeling. Lipids were extracted and separated by TLC as described above. Radioactivity was detected by phosphorimaging and was quantified using ImageQuant software (GE Healthcare, Piscataway, N.J., USA). Incorporation of label into individual fatty acids was determined by making FAMEs as described above, separating the methyl esters by TLC as described in (Koo, Fulda, Browse and Ohlrogge 2005, Plant J, 44, 620-632) and measuring radioactivity by phosphorimaging.
Feedback inhibition of fatty acid synthesis was measured by the addition of a ^14C-acetate tracer. […] Sterol synthesis is dependent on acetyl-CoA and ATP, both of which are required for fatty acid synthesis. Therefore, if fatty acid synthesis is inhibited due to substrate limitation; so should be sterol biosynthesis. ^14C-acetate incorporation into sterols was unaffected by Tween-80 feeding, while incorporation into free fatty acids mirrored that of total lipids (FIG. 5), showing that the effect is restricted to fatty acid synthesis. […] Three hour time points were used for the remainder of this study to separate the period of maximum feedback inhibition from any lipid homeostatic mechanisms arising from the gross fatty acid compositional changes caused by long term Tween-80 feeding.
Plants contain plastidic and cytosolic ACCase and F AS enzyme systems, both of which are capable of incorporating ^14C-acetate into fatty acids. Comparing the distribution of label in individual fatty acid species can therefore provide information on the relative contribution of these pathways. […] The degree to which ^14C-acetate incorporation is inhibited by haloxyfop is proportional to cytosolic elongation activity, whereas haloxyfop-resistant incorporation is from the de nova pathway inside the plastid.
To separate these possibilities, we exploited the fact that exogenous malonate can be converted to malonyl-CoA and used by FAS, bypassing the ACCase reaction (Kannangara et al. 1973, Plant Physiol, 52, 156-161). If ACCase is the only point of inhibition then the rate of ^14C-malonate labeling of de novo fatty acids should be the same in cultures with or without Tween-80. […] Therefore ACCase, and not F AS, is inhibited by Tween-80 feeding. When combined, the data from FIG. 6 unambiguously identify plastidic ACCase as the target of Tween-80 induced feedback inhibition.

ACCase = ACCase enzyme assay on crude cell extracts; format: biochemical, Brassica napus
Experimental: All chemicals were obtained from Sigma and radioisotopes from American Radiolabeled Chemicals. ACCase activity was measured as the acetyl-CoA dependent incorporation of ^14C—NaHC03 into acid and stable products. Crude cell extracts were prepared by grinding fresh cells in 3 volumes (w/v) of 50 mM Tris-Cl, pH 7.5, 100 mM KCl, 5 mM MgCl2, 1 mM DTT, 0.1% TritonX-100, 10% glycerol, and plant protease inhibitor cocktail (Sigma). Homogenate was gently mixed on ice for 10 min and then centrifuged for 5 min at 3000 g. Desalting of extracts was done with PD-10 columns (GE Life Sciences). […] Reactions were initiated by the addition of 5 μlL cell extract and were stopped by the addition of 15 μL 12 N HCL. The contents were dried completely at 55° C. and the solids were resuspended in 30 μL water and counted by liquid scintillation spectroscopy. Minus acetyl-CoA controls were always included. Assays went for 30 min, except when measuring the effects of metabolites (10 min). Metabolites were added to the reaction immediately after cell extract to preserve labile thioester bonds. FFA stock solutions were made in ethanol and acyl-CoAs were suspended in water.

B. napus cells [2] = test: Quantification of fatty acid uptake from 13C-oleoyl-Tween by B. napus cells; format: cell-based, Brassica napus; conditions: 10 mM 13C-oleoyl-Tween
Experimental: Lipids were extracted from up to 100 mg fresh weight of frozen cells by homogenizing twice in 500 μL of methanol:chloroform:formic acid (20:10:1 v/v) using glass beads. The combined organic solvent was extracted with 500 μL of 1 M KCl, 0.2 M H3PO4 and the organic phase was recovered, dried under N2, and resuspended in hexane. Lipid classes were separated by TLC using silica gel G TLC Uniplates (Analtech, Newark, Del., USA) with hexane:diethylether:acetic acid (80:20:1, v/v) for neutral lipids or with acetone:toluene:water (91:30:7 v/v) with 0.15 M ammonium sulfate impregnated plates for polar lipids. Loading was equivalent to 10 or 20 mg fresh weight. Lipids were visualized with iodine vapor.
Fatty acid quantification was done by analysis of fatty acid methyl esters (FAMEs). […] FAMEs resuspended in hexane were analyzed with an HP6890 gas chromatograph-flame ionization detector (Agilent Technologies) or an HP5890 gas chromatograph-mass spectrometer (Hewlett-Packard) fitted with 60 m×250 μm SP-2340 capillary columns (Supelco). […]
1-^13C-oleic acid was obtained from Cambridge Isotope Laboratories (Andover, Mass., USA). […] Lipid extraction and GC/MS was done as described above. ^13C-fatty acids were detected and quantified and corrected for natural isotope abundance as previously described (Schwender et al. 2003, J Biol Chem, 278, 29442-29453). […]

B. napus cells [3] = test: Quantification of free fatty acid, acyl-ACP and acyl-CoA pools in cells; format: cell-based, Brassica napus; conditions: cells fed 13C-oleoyl-Tween, at 3 hours
Experimental: Free fatty acids were extracted from tissue by quenching ˜300 mg of frozen cells in 2 mL boiling isopropanol for 5 min. Once cooled, 2 mL of 0.9% NaCl was added and lipids were extracted twice with 4 mL of hexane. Neutral lipids were separated by TLC and free fatty acids were scraped, made into FAMEs, and analyzed by GC-FID or GC-MS as described above. Acyl-CoAs were extracted from ˜15 mg FW of cells and quantified as previously described (Larson and Graham 2001, Plant J, 25, 115-125). Acyl-ACPs were extracted and quantified as previously described (Kopka, Ohlrogge and Jaworski 1995, Anal Biochem, 224, 51-60) with the following modifications: 1) Internal standards used were 11:0-CoA (Sigma) and 17:0—ACP made from Spinach ACP as previously described (Broadwater and Fox 1999, Protein Expr Purif, 15, 314-326). 2) Fully dissolving TCA precipitated proteins required three extractions with MOPS buffer rather than just one.
1986 Plant Physiol, 82, 771-779). Free fatty acids can be activated by esterification to CoA or ACP before being deposited in cellular lipids. Steady state pools acyl-ACP and acyl-CoA as well as free fatty acids (FFA) were measured in cells fed Tween-80. After three hours of feeding, 18:1 FFA appeared where there was none detected in untreated cells (FIG. 9a). […] In a separate experiment designed to distinguish the incorporation of fatty acids from Tween from secondary effects of feedback inhibition, FFA and acylACPs were analyzed in cells fed ^13C-oleoyl-Tween. […] First, the in vivo concentrations of these intermediates were calculated based on the range of values in FIG. 9 and the water content of the cells. […] However, considering that acyl-ACPs are restricted to the plastid, the volume of which in developing embryos was determined to be 10% of the cell (Mansfield and Briarty 1992, Can J Bot, 70, 151-164), the estimate increased to 5-10 μM. […] Thioesterase activity was measured using the same conditions as the ACCase assay. […]

[4] = target: Brassica napus plastidic (heteromeric) acetyl-CoA carboxylase, endogenous enzyme in crude cell extracts (Brassica napus); test: cell-based or functional assay

In the case of `O=C(O)CC(=O)O` [malonate], the “inhibition of 14C-acetate incorporation on malonate feeding” value ([1]; malonate feeding) is reported as “does not cause inhibition”.
With Tween-40 the “Relative 14C-acetate incorporation (% control)” value [1] was 84.4 ± 3.4 % control.
With `CCCCCCCC/C=C\CCCCCCCC(=O)SCCNC(=O)CCNC(=O)[C@H](O)C(C)(C)COP(=O)(O)OP(=O)(O)OC[C@H]1O[C@@H](n2cnc3c(N)ncnc32)[C@H](O)[C@@H]1OP(=O)(O)O` [18:1-CoA, 18:1-Coenzyme A] the “extent of ACCase inhibition” value (ACCase; crude extract, physiological range of concentrations) was “partial”.
With Tween-18:1 the “inhibition of acetate labeling of lipids” value ([1]; in words) was “maximum inhibition” and the “Relative 14C-acetate incorporation (% control)” value [1] was 51.5 ± 6.7 % control.
Tween-60 was tested, and the “Relative 14C-acetate incorporation (% control)” value [1] was 85.9 ± 3.4 % control.
For `O=C(O)CCC(=O)C(=O)O` [2-oxoglutarate], the “ACCase activity, difference between control and Tween-80 fed cultures” value (ACCase; in the presence of 5 mM 2-oxoglutarate) was “no differences”.
For Tween-85, the “Relative 14C-acetate incorporation (% control)” value [1] was 48.8 ± 5.9 % control.
`CC(Oc1ccc(Oc2ncc(C(F)(F)F)cc2Cl)cc1)C(=O)O` (centres unmarked) [haloxyfop] was tested, and the “reduction in ACCase activity” value (ACCase; crude extracts treated with haloxyfop) was “about 15%”.
For 1-^13C-oleoyl-Tween, the “13C-18:1 as proportion of the total 18:1” value (B. napus cells [2]; after three hours) was “about 10%”, the “proportion of 13C-label in 18-carbon fatty acids” value (B. napus cells [2]; by 48 hours) was “about 70%” and the “percent of 18:1-ACP containing 13C-oleic acid” value (B. napus cells [3]) was 46.2±4.2%. For the same compound, the “percent of 18:1 FFA containing 13C-oleic acid” value (B. napus cells [3]) was 99.1±2.2%.
Work on “B. napus 18:1-ACP (18:1-Acyl Carrier Protein made from BnACP, GenBank:X13127.1, with 6x his-tag)” yielded an ACCase activity in crude B. napus cell extracts (acetyl-CoA dependent incorporation of 14C-NaHCO3, 10 min assay) [4] greater than 3 µM.
